From ChEMBL document CHEMBL6078677, “Discovery and optimization of tetrahydroacridine derivatives as a novel class of antibiotics against multidrug-resistant Gram-positive pathogens by targeting type I signal peptidase and disrupting bacterial membrane” (Eur J Med Chem, 2025)
≈ marks a conversion by molar mass, not a printed value. Calls of active or inactive are those of the source. The calls are words filed in the database; no cut-off is given here.

Columns and labels:
[1] = tested on: Acinetobacter baumannii; experiment: Antimicrobial activity against Acinetobacter baumannii 7979 assessed as inhibition of visible growth of bacteria incubated for 20 hrs by broth microdilution method; format: functional
[2] = tested on: Streptococcus pyogenes; experiment: Antimicrobial activity against Streptococcus pyogenes DL02 harboring erythromycin-resistance rRNA methylase B assessed as inhibition of visible growth of bacteria incubated for 20 hrs by broth microdilution method; format: functional
[3] = tested on: Enterococcus faecalis; experiment: microbe, parasite or virus in culture; format: functional; conditions: SF23-1, time 20 hrs
Description: Antimicrobial activity against Enterococcus faecalis SF23-1 harboring erythromycin-resistance rRNA methylase B, tetracycline efflux protein L and chloramphenicol-florfenicol resistance methylase assessed as inhibition of visible growth of bacteria incubated for 20 hrs by broth microdilution method

[4] = Cytotoxicity against human HEp-2 cells assessed as cell viability at 2 times of MIC incubated for 48 hrs by CCK8 assay (reference value: 100 %); format: toxicity, cell-based; conditions: read-out: Activity
[5] = Cytotoxicity against human HEp-2 cells assessed as cell viability at 16 times of MIC incubated for 48 hrs by CCK8 assay (reference value: 100 %); format: toxicity, cell-based; conditions: read-out: Activity
[6] = tested on: Streptococcus agalactiae; experiment: Antimicrobial activity against Streptococcus agalactiae DL03 harboring erythromycin-resistance rRNA methylase B assessed as inhibition of visible growth of bacteria incubated for 20 hrs by broth microdilution method; format: functional
[7] = Hemolytic activity in Kunming mouse erythrocytes assessed as hemolysis at 2 times of MIC measured after 1 hrs by absorbance based assay relative to control; format: toxicity, cell-based, Erythrocyte; conditions: read-out: Activity
[8] = tested on: Staphylococcus aureus; experiment: Drug resistance, ratio of MIC for Staphylococcus aureus ATCC 29213 measured after 28 days to MIC for Staphylococcus aureus ATCC 29213 measured after 20 hrs; format: functional
[9] = Hemolytic activity in Kunming mouse erythrocytes assessed as hemolysis at 16 times of MIC measured after 1 hrs by absorbance based assay relative to control; format: toxicity, cell-based, Erythrocyte; conditions: read-out: Activity
[10] = tested on: Escherichia coli; experiment: Antimicrobial activity against Escherichia coli ATCC 25922 assessed as inhibition of visible growth of bacteria incubated for 20 hrs by broth microdilution method; format: functional
[11] = tested on: Enterococcus faecium; experiment: Antimicrobial activity against Enterococcus faecium QF31 harboring erythromycin resistance rRNA methylase B and chloramphenicol-florfenicol resistance methylase assessed as inhibition of visible growth of bacteria incubated for 20 hrs by broth microdilution method; format: functional
[12] = tested on: Staphylococcus aureus; experiment: microbe, parasite or virus in culture; format: functional; conditions: M147-2, time 20 hrs
Description: Antimicrobial activity against Staphylococcus aureus M147-2 harboring erythromycin resistance rRNA methylase B, tetracycline efflux protein L and chloramphenicol-florfenicol resistance methylase assessed as inhibition of visible growth of bacteria incubated for 20 hrs by broth microdilution method

[13] = tested on: Pseudomonas aeruginosa; experiment: Antimicrobial activity against Pseudomonas aeruginosa PA01 assessed as inhibition of visible growth of bacteria incubated for 20 hrs by broth microdilution method; format: functional
[14] = tested on: Salmonella enteritidis; experiment: Antimicrobial activity against Salmonella enteritis S1 assessed as inhibition of visible growth of bacteria incubated for 20 hrs by broth microdilution method; format: functional, Salmonella enterica subsp. enterica serovar Enteritidis; conditions: Salmonella enterica
[15] = Cytotoxicity against human HEp-2 cells assessed as cell viability at 1 time of MIC incubated for 48 hrs by CCK8 assay (reference value: 100 %); format: toxicity, cell-based; conditions: read-out: Activity
[16] = tested on: Pseudomonas aeruginosa; experiment: Antimicrobial activity against Pseudomonas aeruginosa PA14 assessed as inhibition of visible growth of bacteria incubated for 20 hrs by broth microdilution method; format: functional
[17] = tested on: Staphylococcus aureus; experiment: Antimicrobial activity against Staphylococcus aureus ATCC 29213 assessed as inhibition of visible growth of bacteria incubated for 20 hrs by broth microdilution method; format: functional
[18] = Hemolytic activity in Kunming mouse erythrocytes assessed as hemolysis at 4 times of MIC measured after 1 hrs by absorbance based assay relative to control; format: toxicity, cell-based, Erythrocyte; conditions: read-out: Activity
[19] = tested on: Staphylococcus aureus; experiment: Bactericidal activity against Staphylococcus aureus ATCC 29213 assessed as bacterial killing at 8 times of MIC measured within 12 hrs by time-kill kinetics assay; format: functional, organism-based
[20] = molecular target: Signal peptidase I (Escherichia coli K-12, UniProt P00803); experiment: Binding affinity to recombinant 6His-tagged Escherichia coli LepB (77 to 324 residues) extracted from Escherichia coli BL21 (DE3) cells assessed as dissociation constant by MST analysis
Chain of Signal peptidase I (P00803 whole entry, the tested form may be a part): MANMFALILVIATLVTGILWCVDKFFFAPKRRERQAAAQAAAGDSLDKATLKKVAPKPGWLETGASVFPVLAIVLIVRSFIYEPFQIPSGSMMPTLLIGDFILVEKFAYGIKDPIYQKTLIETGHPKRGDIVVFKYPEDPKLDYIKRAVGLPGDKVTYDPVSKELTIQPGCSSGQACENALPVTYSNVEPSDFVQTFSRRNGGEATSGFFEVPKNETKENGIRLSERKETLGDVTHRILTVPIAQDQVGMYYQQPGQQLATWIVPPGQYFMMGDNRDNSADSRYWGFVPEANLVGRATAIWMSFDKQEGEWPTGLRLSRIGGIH

[21] = Cytotoxicity against human Caco-2 cells assessed as cell viability at 8 times of MIC incubated for 48 hrs by CCK8 assay (reference value: 99.54 %); format: toxicity, cell-based; conditions: read-out: Activity
[22] = tested on: Enterococcus faecalis; experiment: Antimicrobial activity against Enterococcus faecalis J2 harboring erythromycin-resistance rRNA methylase B and oxazolidinone phenicol transferable resistance gene assessed as inhibition of visible growth of bacteria incubated for 20 hrs by broth microdilution method; format: functional
[23] = tested on: Streptococcus suis; experiment: microbe, parasite or virus in culture; format: functional; conditions: SH0918, time 20 hrs
Description: Antimicrobial activity against Streptococcus suis SH0918 harboring erythromycin-resistance rRNA methylase B, tetracycline efflux protein O and oxazolidinone phenicol transferable resistance gene assessed as inhibition of visible growth of bacteria incubated for 20 hrs by broth microdilution method

[24] = Hemolytic activity in Kunming mouse erythrocytes assessed as hemolysis at 8 times of MIC measured after 1 hrs by absorbance based assay relative to control; format: toxicity, cell-based, Erythrocyte; conditions: read-out: Activity
[25] = Cytotoxicity against human Caco-2 cells assessed as cell viability at 2 times of MIC incubated for 48 hrs by CCK8 assay (reference value: 99.54 %); format: toxicity, cell-based; conditions: read-out: Activity
[26] = tested on: Staphylococcus aureus; experiment: microbe, parasite or virus in culture; format: functional; conditions: M92-1, time 20 hrs
Description: Antimicrobial activity against Staphylococcus aureus M92-1 harboring erythromycin resistance rRNA methylase B, tetracycline efflux protein L and oxazolidinone-phenicol transferable resistance gene assessed as inhibition of visible growth of bacteria incubated for 20 hrs by broth microdilution method

[27] = tested on: Streptococcus suis; experiment: Antimicrobial activity against Streptococcus suis P1/7 assessed as inhibition of visible growth of bacteria incubated for 20 hrs by broth microdilution method; format: functional
[28] = tested on: Staphylococcus aureus; experiment: Bactericidal activity against Staphylococcus aureus ATCC 29213 assessed as log reduction in bacterial number at 4 times of MIC measured after 24 hrs by time-kill kinetics assay; format: functional
[29] = tested on: Enterococcus faecium; experiment: Antimicrobial activity against Enterococcus faecium MC38 harboring erythromycin resistance rRNA methylase B and oxazolidinone-phenicol transferable resistance gene assessed as inhibition of visible growth of bacteria incubated for 20 hrs by broth microdilution method; format: functional
[30] = Cytotoxicity against human HEp-2 cells assessed as cell viability at 4 times of MIC incubated for 48 hrs by CCK8 assay (reference value: 100 %); format: toxicity, cell-based; conditions: read-out: Activity
[31] = tested on: Enterococcus faecalis; experiment: Antimicrobial activity against Enterococcus faecalis ES01 harboring erythromycin-resistance rRNA methylase B and vanB-type vancomycin-resistance locus assessed as inhibition of visible growth of bacteria incubated for 20 hrs by broth microdilution method; format: functional
[32] = Cytotoxicity against human HEp-2 cells assessed as cell viability at 8 times of MIC incubated for 48 hrs by CCK8 assay (reference value: 100 %); format: toxicity, cell-based; conditions: read-out: Activity
[33] = tested on: Staphylococcus aureus; experiment: Antimicrobial activity against Staphylococcus aureus YZSA-15 harboring erythromycin resistance rRNA methylase C and vancomycin resistance locus assessed as inhibition of visible growth of bacteria incubated for 20 hrs by broth microdilution method; format: functional
[34] = tested on: Klebsiella pneumoniae; experiment: Antimicrobial activity against Klebsiella pneumoniae 9-1 assessed as inhibition of visible growth of bacteria incubated for 20 hrs by broth microdilution method; format: functional
[35] = tested on: Enterococcus faecalis; experiment: Antimicrobial activity against Enterococcus faecalis JH2-2 assessed as inhibition of visible growth of bacteria incubated for 20 hrs by broth microdilution method; format: functional
[36] = tested on: Staphylococcus aureus; experiment: Bactericidal activity against Staphylococcus aureus ATCC 29213 assessed as decrease in bacterial number measured within 12 hrs by time-kill kinetics assay; format: functional, organism-based
[37] = tested on: Staphylococcus aureus; experiment: Antimicrobial activity against Staphylococcus aureus YZSA-24 harboring erythromycin resistance rRNA methylase C and methicillin resistance gene resistance locus assessed as inhibition of visible growth of bacteria incubated for 20 hrs by broth microdilution method; format: functional
[38] = Hemolytic activity in Kunming mouse erythrocytes measured after 1 hrs by absorbance based assay; format: toxicity, cell-based, Erythrocyte
[39] = Cytotoxicity against human Caco-2 cells assessed as cell viability at 1 time of MIC incubated for 48 hrs by CCK8 assay (reference value: 99.54 %); format: toxicity, cell-based; conditions: read-out: Activity
[40] = Cytotoxicity against human Caco-2 cells assessed as cell viability at 4 times of MIC incubated for 48 hrs by CCK8 assay (reference value: 99.54 %); format: toxicity, cell-based; conditions: read-out: Activity
[41] = tested on: Enterococcus faecium; experiment: Antimicrobial activity against Enterococcus faecium HFY01 assessed as inhibition of visible growth of bacteria incubated for 20 hrs by broth microdilution method; format: functional
[42] = tested on: Staphylococcus aureus; experiment: Antimicrobial activity against Staphylococcus aureus YZSA-21 harboring erythromycin resistance rRNA methylase C assessed as inhibition of visible growth of bacteria incubated for 20 hrs by broth microdilution method; format: functional
[43] = Hemolytic activity in Kunming mouse erythrocytes assessed as hemolysis at 1 time of MIC measured after 1 hrs by absorbance based assay relative to control; format: toxicity, cell-based, Erythrocyte; conditions: read-out: Activity
[44] = Cytotoxicity against human Caco-2 cells assessed as cell viability at 16 times of MIC incubated for 48 hrs by CCK8 assay (reference value: 99.54 %); format: toxicity, cell-based; conditions: read-out: Activity
[45] = tested on: Acinetobacter baumannii; experiment: Antimicrobial activity against Acinetobacter baumannii AB11 assessed as inhibition of visible growth of bacteria incubated for 20 hrs by broth microdilution method; format: functional
[46] = tested on: Staphylococcus aureus; experiment: Antibacterial activity against methicillin-resistant Staphylococcus aureus YZSA-24 infected in cyclophosphamide-induced neutrophil depleted female ICR mouse model of skin infection assessed as log reduction in bacterial load at 1 %, TOP preadministered with cyclophosphamide for 5 days followed by bacterial administration and measured after 25 hrs of compound administration relative to vehicle group; format: functional

## CCCCCCc1ccc(-c2ccc(/C=C3\CC(C)Cc4c3nc3ccc(OC)cc3c4C(=O)O)cn2)cc1 (racemic)
[1]
  MIC: > 128 µg/mL
[2]
  MIC: 16 µg/mL (≈ 30.7 µM)
[3]
  MIC: 8 µg/mL (≈ 15.4 µM)
[4]
  viability at 48 h, 2 times of MIC: 94.1%
[5]
  viability at 48 h, 16 times of MIC: 1.91%
[6]
  MIC: 8 µg/mL (≈ 15.4 µM)
[7]
  hemolysis at 1 h, 2 times of MIC: 0.33%
[8]
  Ratio: 4
[9]
  hemolysis at 1 h, 16 times of MIC: 72.5%
[10]
  MIC: > 128 µg/mL
[11]
  MIC: 4 µg/mL (≈ 7.68 µM)
[12]
  MIC: 4 µg/mL (≈ 7.68 µM)
[13]
  MIC: > 128 µg/mL
[14]
  MIC: > 128 µg/mL
[15]
  viability at 48 h, 1 time of MIC: 101%
[16]
  MIC: > 128 µg/mL
[17]
  MIC: 4 µg/mL (≈ 7.68 µM)
[18]
  hemolysis at 1 h, 4 times of MIC: 0.98%
[19]
  Activity: Active
[20]
  Kd: 20.9 µM
[21]
  viability at 48 h, 8 times of MIC: 17.8%
[22]
  MIC: 4 µg/mL (≈ 7.68 µM)
[23]
  MIC: 32 µg/mL (≈ 61.5 µM)
[24]
  hemolysis at 1 h, 8 times of MIC: 55.8%
[25]
  viability at 48 h, 2 times of MIC: 73.5%
[26]
  MIC: 4 µg/mL (≈ 7.68 µM)
[27]
  MIC: 32 µg/mL (≈ 61.5 µM)
[28]
  Activity: 2.6 log10CFU/ml
[29]
  MIC: 4 µg/mL (≈ 7.68 µM)
[30]
  viability at 48 h, 4 times of MIC: 64%
[31]
  MIC: 4 µg/mL (≈ 7.68 µM)
[32]
  viability at 48 h, 8 times of MIC: 39%
[33]
  MIC: 4 µg/mL (≈ 7.68 µM)
[34]
  MIC: > 128 µg/mL
[35]
  MIC: 8 µg/mL (≈ 15.4 µM)
[36]
  Activity: Dose-dependent-effect
[37]
  MIC: 4 µg/mL (≈ 7.68 µM)
[38]
  HC50 at 1 h: 34.8 µg/mL
[39]
  viability at 48 h, 1 time of MIC: 99.7%
[40]
  viability at 48 h, 4 times of MIC: 49.7%
[41]
  MIC: 4 µg/mL (≈ 7.68 µM)
[42]
  MIC: 4 µg/mL (≈ 7.68 µM)
[43]
  hemolysis at 1 h, 1 time of MIC: 0%
[44]
  viability at 48 h, 16 times of MIC: 1.44%
[45]
  MIC: > 128 µg/mL

## CC(=O)NC[C@H]1CN(c2ccc(N3CCOCC3)c(F)c2)C(=O)O1 [LINEZOLID]
[2]
  MIC: < 0.06 µg/mL
[6]
  MIC: 1 µg/mL (≈ 2.96 µM)
[46]
  Activity: 4.05 log10CFU/ml
[11]
  MIC: 2 µg/mL (≈ 5.93 µM)
[12]
  MIC: 8 µg/mL (≈ 23.7 µM)
[17]
  MIC: 1 µg/mL (≈ 2.96 µM)
[23]
  MIC: 8 µg/mL (≈ 23.7 µM)
[26]
  MIC: 8 µg/mL (≈ 23.7 µM)
[27]
  MIC: 0.125 µg/mL (≈ 0.371 µM)
[29]
  MIC: 2 µg/mL (≈ 5.93 µM)
[33]
  MIC: 0.5 µg/mL (≈ 1.48 µM)
[35]
  MIC: 0.5 µg/mL (≈ 1.48 µM)
[37]
  MIC: 0.5 µg/mL (≈ 1.48 µM)
[41]
  MIC: 2 µg/mL (≈ 5.93 µM)
[42]
  MIC: 1 µg/mL (≈ 2.96 µM)
